Results reported in ChEMBL document CHEMBL1135119, “Solid-phase synthesis of FKBP12 inhibitors: N-sulfonyl and N-carbamoylprolyl/pipecolyl amides” (Bioorg Med Chem Lett, 2002).

Experiments:
[1] = biological target: Peptidyl-prolyl cis-trans isomerase FKBP1A (Homo sapiens, UniProt P62942); assay: Ability to inhibit peptidyl-prolyl isomerase (PPIase, or rotamase) activity of FK506 binding protein 12
Mus musculus = assay: Recovery of TH-immunostaining in […]-treated mice by post-MPTP treatment at a peroral dose of 10 mg/kg; type: functional, organism-based; set-up: dose 10 mg/kg

Peptidyl-prolyl cis-trans isomerase FKBP1A, sequence (P62942 whole entry): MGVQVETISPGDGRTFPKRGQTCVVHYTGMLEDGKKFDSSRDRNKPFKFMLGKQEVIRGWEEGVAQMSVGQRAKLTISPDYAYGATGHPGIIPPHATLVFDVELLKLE

| SMILES | Ki [1] | Recovery (Mus musculus) |
| --- | --- | --- |
| O=C(NCCc1ccccc1)C1CCCCN1S(=O)(=O)c1ccccc1 (centres undefined) | 1.5 µM | – |
| O=C(NCCc1ccccc1)C1CCCN1S(=O)(=O)CCc1ccccc1 (centres undefined) | 32 µM | – |
| O=C(NCCCc1ccccc1)C1CCCN1C(=O)Nc1ccccc1 (centres undefined) | 1.4 µM | – |
| O=C(NCCCCc1ccccc1)[C@@H]1CCCCN1S(=O)(=O)Cc1ccccc1 | – | 37% |
| O=C(NCCCc1ccccc1)C1CCCCN1S(=O)(=O)/C=C/c1ccccc1 (centres undefined) | 1.1 µM | – |
| Cc1ccc(S(=O)(=O)N2CCCC2C(=O)NCCc2ccccc2)cc1 (centres undefined) | 33 µM | – |
| CCCCNC(=O)C1CCCN1C(=O)Nc1ccccc1CC (centres undefined) | > 50 µM | – |
| CCc1ccccc1NC(=O)N1CCCC1C(=O)NCc1ccccc1 (centres undefined) | > 50 µM | – |
| O=C(NCCCc1ccccc1)C1CCCN1S(=O)(=O)/C=C/c1ccccc1 (centres undefined) | 1.3 µM | – |
| O=C(NCCc1ccccc1)C1CCCCN1S(=O)(=O)Cc1ccccc1 (centres undefined) | 13 µM | – |
| CCc1ccccc1NC(=O)N1CCCC1C(=O)NCCc1ccccc1 (centres undefined) | > 50 µM | – |
| CCCCNC(=O)C1CCCN1S(=O)(=O)CCc1ccccc1 (centres undefined) | 42 µM | – |
| O=C(NCCCc1ccccc1)C1CCCN1C(=O)NC1CCCCC1 (centres undefined) | > 33 µM | – |
| O=C(NCCc1ccccc1)C1CCCN1S(=O)(=O)c1ccccc1 (centres undefined) | 37 µM | – |
| CCc1ccccc1NC(=O)N1CCCC1C(=O)NCCCc1ccccc1 (centres undefined) | > 50 µM | – |
| O=C(NCCCc1ccccc1)[C@@H]1CCCN1S(=O)(=O)Cc1ccccc1 | 2.8 µM | 17% |
| O=C(NCCCc1ccccc1)C1CCCN1S(=O)(=O)c1ccccc1 (centres undefined) | 9.5 µM | – |
| O=C(NCCc1ccccc1)C1CCCN1C(=O)NC1CCCCC1 (centres undefined) | > 50 µM | – |
| CCc1ccc(S(=O)(=O)N2CCCCC2C(=O)NCc2ccccc2)cc1 (centres undefined) | 1.3 µM | – |
| CCCCNC(=O)C1CCCN1C(=O)NCc1ccccc1 (centres undefined) | > 50 µM | – |
| CCCCNC(=O)C1CCCN1S(=O)(=O)c1ccc(C)cc1 (centres undefined) | > 50 µM | – |
| CCCCNC(=O)C1CCCCN1S(=O)(=O)/C=C/c1ccccc1 (centres undefined) | 11 µM | – |
| O=C(NCc1ccccc1)C1CCCCN1S(=O)(=O)c1ccccc1 (centres undefined) | 2.5 µM | – |
| O=C(NCCc1ccccc1)C1CCCCN1S(=O)(=O)/C=C/c1ccccc1 (centres undefined) | 2.4 µM | – |
| O=C(NCc1ccccc1)C1CCCN1C(=O)NCc1ccccc1 (centres undefined) | > 50 µM | – |
| O=C(NCCCc1ccccc1)[C@@H]1CCCN1C(=O)NCc1ccccc1 | 4.2 µM | 31% |

| SMILES | Ki [1] | Recovery (Mus musculus) |
| --- | --- | --- |
| CCCCNC(=O)C1CCCCN1S(=O)(=O)c1ccc(CC)cc1 (centres undefined) | 1.2 µM | – |
| CCCCNC(=O)C1CCCN1C(=O)NC1CCCCC1 (centres undefined) | > 50 µM | – |
| O=C(NCCCc1ccccc1)C1CCCCN1S(=O)(=O)Cc1ccccc1 (centres undefined) | 2.2 µM | – |
| O=C(NCCc1ccccc1)C1CCCN1S(=O)(=O)/C=C/c1ccccc1 (centres undefined) | 22 µM | – |
| CCCCNC(=O)C1CCCN1S(=O)(=O)c1ccccc1 (centres undefined) | > 50 µM | – |
| CCC(C)(C)C(=O)C(=O)N1CCC[C@H]1C(=O)OCCCc1cccnc1 | – | 40% |
| O=C(NCc1ccccc1)C1CCCN1S(=O)(=O)/C=C/c1ccccc1 (centres undefined) | > 50 µM | – |
| O=C(NCc1ccccc1)C1CCCN1C(=O)NC1CCCCC1 (centres undefined) | > 50 µM | – |
| CCc1ccc(S(=O)(=O)N2CCCCC2C(=O)NCCc2ccccc2)cc1 (centres undefined) | 1.6 µM | – |
| O=C(NCCc1ccccc1)C1CCCN1C(=O)Nc1ccccc1 (centres undefined) | 30 µM | – |
| CCCCCCCCS(=O)(=O)N1CCCC1C(=O)NCCCc1ccccc1 (centres undefined) | 5.4 µM | – |
| O=C(NCCCc1ccccc1)C1CCCN1S(=O)(=O)CCc1ccccc1 (centres undefined) | 13 µM | – |
| CCCCCCCCS(=O)(=O)N1CCCC1C(=O)NCc1ccccc1 (centres undefined) | > 50 µM | – |
| CCCCCCCCS(=O)(=O)N1CCCC1C(=O)NCCc1ccccc1 (centres undefined) | > 50 µM | – |
| O=C(NCCCc1ccccc1)C1CCCCN1S(=O)(=O)c1ccccc1 (centres undefined) | 0.72 µM | – |
| CCCCNC(=O)C1CCCCN1S(=O)(=O)Cc1ccccc1 (centres undefined) | > 50 µM | – |
| O=C(NCCCCc1ccccc1)[C@@H]1CCCCN1C(=O)NCc1ccccc1 | 1.6 µM | 42% |
| O=C(NCc1ccccc1)C1CCCN1S(=O)(=O)CCc1ccccc1 (centres undefined) | 22 µM | – |
| O=C(NCc1ccccc1)C1CCCCN1S(=O)(=O)/C=C/c1ccccc1 (centres undefined) | 3.9 µM | – |
| CCCCNC(=O)C1CCCCN1S(=O)(=O)c1ccccc1 (centres undefined) | 4.7 µM | – |
| O=C(NCc1ccccc1)C1CCCCN1S(=O)(=O)Cc1ccccc1 (centres undefined) | 39 µM | – |
| O=C(NCc1ccccc1)C1CCCN1C(=O)Nc1ccccc1 (centres undefined) | 33 µM | – |
| Cc1ccc(S(=O)(=O)N2CCCC2C(=O)NCCCc2ccccc2)cc1 (centres undefined) | 7.6 µM | – |
| Cc1ccc(S(=O)(=O)N2CCCC2C(=O)NCc2ccccc2)cc1 (centres undefined) | > 50 µM | – |
| O=C(NCCc1ccccc1)C1CCCN1C(=O)NCc1ccccc1 (centres undefined) | > 30 µM | – |
